Tests used:
Assay type in all cases: in vivo
Myzus persicae = assay: Myzus test (spray treatment); conditions: 100 g/ha, Chinese cabbage discs
Experimental: Myzus Test (Spray Treatment)
(§1) To produce a suitable preparation of active compound, 1 part by weight of active compound is mixed with the stated amounts of solvent and emulsifier, and the concentrate is diluted with emulsifier-containing water to the desired concentration.
Discs of Chinese cabbage (Brassica pekinensis), which are infested by all stages of the green peach aphid (Myzus persicae), are sprayed with a preparation of active compound of the desired concentration.
After the desired period of time, the effect in % is determined. 100% means that all aphids have been killed; 0% means that none of the aphids have been killed.

Sinapis [1] = assay: Herbicidal post-emergence action (Example M); conditions: greenhouse, 320 g of a.i./ha, about 3 weeks
Experimental: (§2) Herbicidal Post-Emergence Action
(§3) Seeds of monocotyledonous and dicotyledonous weed and crop plants are placed into sandy loam in wood fibre pots, covered with soil and cultivated in a greenhouse under good growth conditions. 2-3 weeks after sowing, the test plants are treated at the one-leaf stage. The test compounds, formulated as wettable powders (WP), are, in various dosages with a water application rate of 600 l/ha (converted), with 0.2% of wetting agent added, sprayed onto the green parts of the plants. After the test plants were kept in the greenhouse under optimum growth conditions for about 3 weeks, the effect of the preparations is rated visually in comparison to untreated controls (herbicidal effect in percent (%): 100% effect=the plants have died, 0% effect=like control plants).

Lolium [2] = assay: Herbicidal post-emergence action (Example M); conditions: greenhouse, 320 g of a.i./ha, about 3 weeks
Experimental: as §2, §3

Setaria [3] = assay: Herbicidal post-emergence action (Example M); conditions: greenhouse, 320 g of a.i./ha, about 3 weeks
Experimental: as §2, §3

Avena sativa = assay: Herbicidal post-emergence action (Example M); conditions: greenhouse, 320 g of a.i./ha, about 3 weeks
Experimental: as §2, §3

Sinapis [4] = assay: Herbicidal pre-emergence action (Example L); conditions: greenhouse, 320 g of a.i./ha, 3 weeks
Description: (§4) Herbicidal Pre-Emergence Action
(§5) Seeds of monocotyledonous and dicotyledonous weed and crop plants are placed into sandy loam in wood fibre pots and covered with soil. The test compounds, formulated in the form of wettable powders (WP), are then, in various dosages as aqueous suspension with a water application rate of 600 l/ha (converted), with 0.2% of wetting agent added, applied to the surface of the covering soil.
(§6) After the treatment, the pots are placed in a greenhouse and kept under good growth conditions for the test plants. The visual assessment of the emergence damage on the test plants is carried out after a trial period of 3 weeks by comparison with untreated controls (herbicidal effect in percent (%): 100% effect=the plants have died, 0% effect=like control plants).

Lolium [5] = assay: Herbicidal pre-emergence action (Example L); conditions: greenhouse, 320 g of a.i./ha, 3 weeks
Description: as §4, §5, §6

Setaria [6] = assay: Herbicidal pre-emergence action (Example L); conditions: greenhouse, 320 g of a.i./ha, 3 weeks
Description: as §4, §5, §6

summer barley = assay: Herbicidal post-emergence action, vessel trials with cereals in the greenhouse, use of safeners (Example N); conditions: without safener
Experimental: as §2
(§7) Seeds of monocotyledonous and dicotyledonous weed and crop plants are placed into sandy loam in wood fibre pots or in plastic pots, covered with soil and cultivated in a greenhouse, during the vegetation period also outdoors outside of the greenhouse, under good growth conditions. 2-3 weeks after sowing, the test plants are treated at the one- to three-leaf stage. The test compounds, formulated as wettable powders (WP) or emulsifiable concentrates (EC) are, in various dosages with a water application rate of 300 l/ha (converted), with wetting agent (0.2 to 0.3%) added, sprayed onto the plants and the surface of the soil. 3-4 weeks after the treatment of the test plants, the effect of the preparations is rated visually in comparison to untreated controls (herbicidal effect in percent (%): 100% effect=the plants have died, 0% effect=like control plants).
(§8) If it is additionally to be tested as to whether safeners can improve the plant compatibility of test substances in the case of crop plants, the following options are used for applying the safener: • seeds of the crop plants are, before sowing, dressed with the safener substance (the amount of safener is stated in percent, based on the weight of the seed) • before the application of the test substances, the crop plants are sprayed with the safener at a certain application rate per hectare (usually 1 day before the application of the test substances) • the safener is applied together with the test substance as a tank mix (the amount of safener is stated in g/ha or as a ratio, based on the herbicide).
(§9) By comparing the effect of the test substances on crop plants without or with safener treatment, it is possible to assess the effect of the safener substance.
(§10) Vessel Trials with Cereals in the Greenhouse
(§11) Mefenpyr applied 1 day prior to the application of herbicide

Tetranychus urticae [7] = assay: Tetranychus test (OP-resistant/spray treatment); conditions: 100 g/ha; spray treatment; bean leaf discs
Experimental: Tetranychus Test (OP-Resistant/Spray Treatment)
To produce a suitable preparation of active compound, 1 part by weight of active compound is mixed with the stated amounts of solvents and emulsifier, and the concentrate is diluted with emulsifier-containing water to the desired concentration.
Discs of bean leaves (Phaseolus vulgaris) which are infested by all stages of the greenhouse red spider mite (Tetranychus urticae) are sprayed with a preparation of active compound of the desired concentration.
(§12) After the desired period of time, the activity in % is determined. 100% means that all spider mites have been killed; 0% means that none of the spider mites have been killed.

Amaranthus = assay: Herbicidal pre-emergence action (Example L); conditions: greenhouse, 320 g of a.i./ha, 3 weeks
Description: as §4, §5, §6

summer wheat = assay: Herbicidal post-emergence action, vessel trials with cereals in the greenhouse, use of safeners (Example N); conditions: without safener
Experimental: as §2, §7, §8, §9, §10, §11

Tetranychus urticae [8] = assay: Tetranychus test (OP-resistant/dip treatment); conditions: 4 ppm; dip treatment; bean plants (Table B)
Experimental: Tetranychus Test (OP-Resistant/Dip Treatment)
as §1
Bean plants (Phaseolus vulgaris), which are heavily infested by all stages of the greenhouse red spider mite (Tetranychus urticae), are dipped into a preparation of active compound of the desired concentration.
as §12

Phaedon cochleariae = assay: Phaedon test (spray treatment); conditions: 100 g/ha, Chinese cabbage discs
Experimental: Phaedon Test (Spray Treatment) [table] To produce a suitable preparation of active compound, 1 part by weight of active compound is mixed with the stated amounts of solvents and emulsifier, and the concentrate is diluted with emulsifier-containing water to the desired concentration. Discs of Chinese cabbage (Brassica pekinensis) are sprayed with a preparation of active compound of the desired concentration and, after they have dried, populated with larvae of the mustard beetle (Phaedon cochleariae).

Stellaria = assay: Herbicidal pre-emergence action (Example L); conditions: greenhouse, 320 g of a.i./ha, 3 weeks
Description: as §4, §5, §6

| SMILES | Kill rate in % after 5d (Myzus persicae) [%] | herbicidal effect in percent, Sinapis (Sinapis [1]) [%] | herbicidal effect in percent, Lolium (Lolium [2]) [%] | herbicidal effect in percent, Setaria (Setaria [3]) [%] | herbicidal effect in percent, Avena sativa (Avena sativa) [%] | herbicidal effect in percent, Sinapis (Sinapis [4]) [%] | herbicidal effect in percent, Lolium (Lolium [5]) [%] | herbicidal effect in percent, Setaria (Setaria [6]) [%] | summer barley observed (%) (summer barley; 12.5 g of a.i./ha) | summer barley observed (%) (summer barley; 25 g of a.i./ha) | summer barley observed (%) (summer barley; 50 g of a.i./ha) | Kill rate in % after 5d (Tetranychus urticae [7]) [%] | herbicidal effect in percent, Amaranthus (Amaranthus) [%] | summer barley observed (%) (summer barley; 100 g of a.i./ha) | summer wheat observed (%) (summer wheat; 25 g of a.i./ha) | Kill rate in % after 7d (Tetranychus urticae [8]) [%] | Kill rate in % after 7d (Phaedon cochleariae) [%] | summer wheat observed (%) (summer wheat; 12.5 g of a.i./ha) | summer wheat observed (%) (summer wheat; 50 g of a.i./ha) | herbicidal effect in percent, Stellaria (Stellaria) [%] |
| --- | --- | --- | --- | --- | --- | --- | --- | --- | --- | --- | --- | --- | --- | --- | --- | --- | --- | --- | --- | --- |
| CCc1cc(C)cc(Br)c1C1=C(OC(=O)COC)C2(CCC(OC)CC2)NC1=O (single isomer, unassigned) [Example I-b-5] | 80 | 70 | 100 | 100 | 100 | 80 | 100 | 90 | 35 | 65 | 98 | 70 |  |  |  |  |  |  |  |  |
| CCc1cc(C)cc(Br)c1C1=C(O)C2(CCC(OC)CC2)NC1=O (single isomer, unassigned) [Example I-a-3] | 100 | 80 | 100 | 100 | 100 |  | 80 | 100 |  | 20 | 90 | 90 | 80 | 95 | 60 | 50 | 100 |  |  |  |
| CCc1cc(C)cc(Br)c1C1=C(OC(=O)C(C)C)C2(CCCCC2)NC1=O [Example I-b-3] |  |  | 90 | 100 | 100 |  |  |  |  |  |  |  |  |  | 20 |  |  | 10 | 75 |  |
| CCc1cc(C)cc(Br)c1C1=C(O)C2(CCCCC2)NC1=O [I-a-2] |  |  | 90 | 100 | 80 |  |  |  |  |  |  |  |  |  |  |  |  |  |  |  |
| CCOC(=O)OC1=C(c2c(Cl)cc(C)cc2CC)C(=O)NC12CCC(OC)CC2 (single isomer, unassigned) [Example I-c-4] |  | 80 | 100 | 100 | 100 | 70 | 80 | 90 | 20 | 70 |  |  |  |  |  |  |  | 60 |  | 80 |
| CCc1cc(C)cc(Br)c1C1=C(OC(=O)C(C)(C)C)C2(CCCCC2)NC1=O [I-b-4] |  |  | 90 | 90 | 80 |  |  |  |  |  |  |  |  |  |  |  |  |  |  |  |
| CCOC(=O)OC1=C(c2c(Br)cc(C)cc2CC)C(=O)NC12CCC(OC)CC2 (single isomer, unassigned) [I-c-3] | 80 | 70 | 100 | 100 | 100 |  | 100 | 100 |  |  |  | 80 | 100 |  |  |  |  |  |  |  |
| CCOC(=O)OC1=C(c2c(Br)cc(C)cc2CC)C(=O)NC12CCCCC2 [I-c-2] |  |  | 90 | 80 | 90 |  |  |  |  |  |  |  |  |  |  |  |  |  |  |  |
| CCc1cc(C)cc(Br)c1C1=C(OC(=O)COC)C2(CCCCC2)NC1=O [Example I-b-2] |  |  | 100 | 100 | 90 |  |  |  |  |  |  |  |  |  | 70 |  |  | 20 | 98 |  |
